ChEMBL document CHEMBL5137051 (Eur J Med Chem, 2022)

How the values were obtained:
A549 = assay: Antiproliferative activity against human A549 cells assessed as cell viability after 72 hrs by MTT assay; format: functional, cell-based; conditions: A549, 72 h
NCI-H1975 = assay: Antiproliferative activity against human H1975 cells assessed as cell viability after 72 hrs by MTT assay; format: functional, cell-based; conditions: NCI-H1975, 72 h
[1] = system: Epidermal growth factor receptor (Homo sapiens), P00533 [L858R,T790M,C797S]; conditions: dose 300.0 nM
[2] = target: Epidermal growth factor receptor (Homo sapiens, UniProt P00533); assay: Inhibition of wild type EGFR (unknown origin) by mobility shift assay
[3] = target: Epidermal growth factor receptor (Homo sapiens, UniProt P00533, L858R/T790M); assay: Inhibition of EGFR L858R/T790M mutant (unknown origin) by mobility shift assay
[4] = target: Epidermal growth factor receptor (Homo sapiens, UniProt P00533, C797S/L858R/T790M); assay: Inhibition of EGFR L858R/T790M/C797S mutant (unknown origin) by mobility shift assay
[5] = target: Hepatocyte growth factor receptor (Homo sapiens, UniProt P08581); assay: Inhibition of c-Met (unknown origin) by mobility shift assay
Hepatocyte growth factor receptor, sequence (P08581 whole entry): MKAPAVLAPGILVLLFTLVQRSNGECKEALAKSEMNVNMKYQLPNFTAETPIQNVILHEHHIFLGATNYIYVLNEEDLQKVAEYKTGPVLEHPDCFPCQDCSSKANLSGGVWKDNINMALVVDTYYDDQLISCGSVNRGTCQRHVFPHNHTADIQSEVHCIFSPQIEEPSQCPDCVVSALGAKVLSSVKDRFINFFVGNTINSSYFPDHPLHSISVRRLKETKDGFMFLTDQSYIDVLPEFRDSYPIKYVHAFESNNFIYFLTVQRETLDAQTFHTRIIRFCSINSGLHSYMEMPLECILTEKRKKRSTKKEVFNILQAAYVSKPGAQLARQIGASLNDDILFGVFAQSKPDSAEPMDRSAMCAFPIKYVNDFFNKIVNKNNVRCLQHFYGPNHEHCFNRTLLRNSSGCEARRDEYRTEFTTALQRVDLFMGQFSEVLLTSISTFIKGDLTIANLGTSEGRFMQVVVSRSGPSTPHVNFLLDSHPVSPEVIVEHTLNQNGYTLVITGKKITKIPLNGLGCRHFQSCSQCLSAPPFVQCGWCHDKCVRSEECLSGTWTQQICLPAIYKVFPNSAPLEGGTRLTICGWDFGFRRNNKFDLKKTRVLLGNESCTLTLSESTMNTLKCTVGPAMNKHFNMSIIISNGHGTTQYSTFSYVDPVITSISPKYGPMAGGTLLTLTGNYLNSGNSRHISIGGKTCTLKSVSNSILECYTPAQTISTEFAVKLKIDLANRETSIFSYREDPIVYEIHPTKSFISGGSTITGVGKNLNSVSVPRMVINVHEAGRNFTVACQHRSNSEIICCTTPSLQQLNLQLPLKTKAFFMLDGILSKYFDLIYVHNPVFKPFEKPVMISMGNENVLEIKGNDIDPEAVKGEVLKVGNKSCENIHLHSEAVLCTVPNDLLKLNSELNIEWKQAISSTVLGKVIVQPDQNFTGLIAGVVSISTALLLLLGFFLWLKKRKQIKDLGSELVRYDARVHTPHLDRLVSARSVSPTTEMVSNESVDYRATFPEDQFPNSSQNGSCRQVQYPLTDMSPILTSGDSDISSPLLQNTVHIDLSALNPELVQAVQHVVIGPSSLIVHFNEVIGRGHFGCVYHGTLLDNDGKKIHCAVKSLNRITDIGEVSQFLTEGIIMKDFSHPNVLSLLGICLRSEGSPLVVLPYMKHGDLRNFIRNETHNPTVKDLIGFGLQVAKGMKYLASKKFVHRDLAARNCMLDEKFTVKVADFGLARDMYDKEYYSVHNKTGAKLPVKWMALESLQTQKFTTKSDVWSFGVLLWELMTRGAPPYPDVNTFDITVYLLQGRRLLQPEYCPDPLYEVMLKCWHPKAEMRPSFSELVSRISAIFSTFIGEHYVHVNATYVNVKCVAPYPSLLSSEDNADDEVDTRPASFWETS

Epidermal growth factor receptor (Homo sapiens, UniProt P00533, L858R/T790M), sequence (P00533 25-1210 T790M/L858R limits assumed): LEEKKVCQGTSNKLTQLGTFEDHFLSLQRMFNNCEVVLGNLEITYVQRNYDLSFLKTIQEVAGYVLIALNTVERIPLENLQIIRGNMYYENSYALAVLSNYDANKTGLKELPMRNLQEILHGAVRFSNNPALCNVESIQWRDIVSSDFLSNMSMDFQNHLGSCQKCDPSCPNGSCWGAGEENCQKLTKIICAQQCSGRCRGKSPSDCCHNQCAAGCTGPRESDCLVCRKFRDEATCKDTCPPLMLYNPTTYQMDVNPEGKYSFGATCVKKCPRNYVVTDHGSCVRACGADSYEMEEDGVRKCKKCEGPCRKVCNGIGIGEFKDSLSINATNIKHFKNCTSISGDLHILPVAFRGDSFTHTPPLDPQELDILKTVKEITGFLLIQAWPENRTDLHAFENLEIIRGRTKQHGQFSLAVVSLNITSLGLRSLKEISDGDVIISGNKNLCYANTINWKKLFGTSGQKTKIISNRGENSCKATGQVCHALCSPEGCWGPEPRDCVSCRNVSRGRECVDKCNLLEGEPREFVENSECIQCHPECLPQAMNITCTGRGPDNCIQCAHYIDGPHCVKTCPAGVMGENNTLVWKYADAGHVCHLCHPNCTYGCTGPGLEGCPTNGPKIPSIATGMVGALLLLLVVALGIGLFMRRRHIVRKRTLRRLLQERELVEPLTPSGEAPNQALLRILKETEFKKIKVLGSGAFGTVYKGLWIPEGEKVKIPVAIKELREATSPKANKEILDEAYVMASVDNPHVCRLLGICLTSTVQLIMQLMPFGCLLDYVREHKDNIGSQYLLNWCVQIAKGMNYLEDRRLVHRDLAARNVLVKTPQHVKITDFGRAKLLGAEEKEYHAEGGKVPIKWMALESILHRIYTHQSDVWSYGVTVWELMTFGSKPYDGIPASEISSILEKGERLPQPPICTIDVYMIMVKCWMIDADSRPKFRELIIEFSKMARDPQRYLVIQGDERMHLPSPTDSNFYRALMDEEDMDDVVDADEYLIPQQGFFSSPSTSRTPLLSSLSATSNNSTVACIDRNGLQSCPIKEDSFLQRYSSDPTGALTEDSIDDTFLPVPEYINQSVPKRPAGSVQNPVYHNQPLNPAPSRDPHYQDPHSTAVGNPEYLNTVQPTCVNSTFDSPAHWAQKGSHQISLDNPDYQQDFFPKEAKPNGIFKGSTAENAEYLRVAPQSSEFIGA
Epidermal growth factor receptor (Homo sapiens, UniProt P00533, C797S/L858R/T790M), sequence (P00533 25-1210 T790M/C797S/L858R limits assumed): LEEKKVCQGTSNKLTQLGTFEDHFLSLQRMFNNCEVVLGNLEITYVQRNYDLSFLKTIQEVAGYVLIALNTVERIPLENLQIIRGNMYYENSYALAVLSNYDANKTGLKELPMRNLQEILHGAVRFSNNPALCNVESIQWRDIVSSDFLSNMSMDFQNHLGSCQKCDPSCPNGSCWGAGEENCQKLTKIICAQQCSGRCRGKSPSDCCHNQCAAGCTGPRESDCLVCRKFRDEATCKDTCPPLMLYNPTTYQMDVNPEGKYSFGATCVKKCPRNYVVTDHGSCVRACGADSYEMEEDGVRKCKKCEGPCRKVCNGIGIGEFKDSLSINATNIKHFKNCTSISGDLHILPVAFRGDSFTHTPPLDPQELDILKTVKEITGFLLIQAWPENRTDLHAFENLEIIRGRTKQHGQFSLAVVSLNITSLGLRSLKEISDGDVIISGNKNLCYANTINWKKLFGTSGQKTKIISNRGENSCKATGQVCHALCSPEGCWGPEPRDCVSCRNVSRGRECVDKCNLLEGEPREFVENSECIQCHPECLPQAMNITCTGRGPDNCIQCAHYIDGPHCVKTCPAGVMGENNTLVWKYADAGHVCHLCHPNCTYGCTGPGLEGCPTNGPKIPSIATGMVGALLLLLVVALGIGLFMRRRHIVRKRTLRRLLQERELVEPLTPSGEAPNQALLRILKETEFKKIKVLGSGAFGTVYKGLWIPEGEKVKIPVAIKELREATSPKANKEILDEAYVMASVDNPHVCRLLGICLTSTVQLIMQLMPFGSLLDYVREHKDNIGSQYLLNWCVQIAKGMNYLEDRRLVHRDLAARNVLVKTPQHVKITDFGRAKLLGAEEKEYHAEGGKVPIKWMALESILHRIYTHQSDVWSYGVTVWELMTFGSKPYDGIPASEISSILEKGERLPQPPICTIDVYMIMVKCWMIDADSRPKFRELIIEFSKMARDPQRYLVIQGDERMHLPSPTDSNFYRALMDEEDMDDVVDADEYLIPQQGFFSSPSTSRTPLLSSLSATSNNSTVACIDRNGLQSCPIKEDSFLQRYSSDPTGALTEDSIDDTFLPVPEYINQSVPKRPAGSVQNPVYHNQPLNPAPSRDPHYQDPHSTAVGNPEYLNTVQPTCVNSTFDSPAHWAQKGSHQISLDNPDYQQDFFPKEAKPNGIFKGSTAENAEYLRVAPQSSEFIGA
Epidermal growth factor receptor (Homo sapiens), P00533 [L858R,T790M,C797S], sequence (P00533 whole entry T790M/C797S/L858R): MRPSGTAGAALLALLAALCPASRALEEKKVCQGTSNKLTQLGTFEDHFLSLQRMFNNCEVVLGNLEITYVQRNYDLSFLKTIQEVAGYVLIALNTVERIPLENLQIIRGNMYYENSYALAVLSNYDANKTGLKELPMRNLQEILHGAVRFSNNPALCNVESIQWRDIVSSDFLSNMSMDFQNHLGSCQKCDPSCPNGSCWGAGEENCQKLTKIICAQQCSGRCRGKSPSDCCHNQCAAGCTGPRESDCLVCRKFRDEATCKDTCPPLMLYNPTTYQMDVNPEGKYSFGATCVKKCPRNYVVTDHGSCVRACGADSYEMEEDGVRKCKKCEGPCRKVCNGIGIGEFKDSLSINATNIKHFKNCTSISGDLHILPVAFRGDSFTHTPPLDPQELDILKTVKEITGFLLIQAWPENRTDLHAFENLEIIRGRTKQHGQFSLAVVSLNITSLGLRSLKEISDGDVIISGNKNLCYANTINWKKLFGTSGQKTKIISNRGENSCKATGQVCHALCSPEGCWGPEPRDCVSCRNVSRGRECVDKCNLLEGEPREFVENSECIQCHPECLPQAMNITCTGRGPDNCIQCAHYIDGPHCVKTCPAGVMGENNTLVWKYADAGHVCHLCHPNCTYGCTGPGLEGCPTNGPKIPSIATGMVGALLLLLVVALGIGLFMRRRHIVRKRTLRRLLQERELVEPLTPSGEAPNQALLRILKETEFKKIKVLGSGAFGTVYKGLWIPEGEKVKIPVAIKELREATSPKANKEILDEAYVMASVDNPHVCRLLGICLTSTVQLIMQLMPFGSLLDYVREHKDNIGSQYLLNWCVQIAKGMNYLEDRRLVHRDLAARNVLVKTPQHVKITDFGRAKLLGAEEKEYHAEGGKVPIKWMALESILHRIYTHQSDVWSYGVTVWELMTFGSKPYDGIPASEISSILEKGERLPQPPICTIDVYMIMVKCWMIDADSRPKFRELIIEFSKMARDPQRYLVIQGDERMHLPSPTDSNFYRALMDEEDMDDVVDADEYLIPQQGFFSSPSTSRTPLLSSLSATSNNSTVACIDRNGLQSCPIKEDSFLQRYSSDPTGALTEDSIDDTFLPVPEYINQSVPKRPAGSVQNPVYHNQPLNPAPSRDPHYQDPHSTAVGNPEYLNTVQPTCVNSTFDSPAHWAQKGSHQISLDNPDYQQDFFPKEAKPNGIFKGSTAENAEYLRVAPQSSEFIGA

SMILES | IC50 (A549) | IC50 (NCI-H1975) | inhibition [1] | IC50 [2] | IC50 [3] | IC50 [4] | IC50 [5]
COc1cc(N(C)C)c(NC(=O)c2ccccn2)cc1Nc1nccc(-c2cn(C)c3ccccc23)n1 | 8290 nM | 10400 nM | 10.5% |  |  |  | 
COc1ccc(C(=O)Nc2cc(Nc3nc(-c4cn(C)c5ccccc45)c4cccnc4n3)c(OC)cc2N(C)CCN(C)C)nc1 | 4230 nM | 1160 nM | 12.8% |  |  |  | 
COc1cc(F)c(NC(=O)c2ccccn2)cc1Nc1nccc(-c2cn(C)c3ccccc23)n1 | 7980 nM | 16500 nM | -1.4% |  |  |  | 
COc1cc(N(C)CCN(C)C)c(NC(=O)c2cccnc2)cc1Nc1nccc(-c2cn(C)c3ccccc23)n1 | 1600 nM | 1750 nM | 41.6% | > 500 nM | 360 nM | > 500 nM | > 1000 nM
COc1cc(N(C)CCN(C)C)c(NC(=O)c2ncccn2)cc1Nc1nccc(-c2cn(C)c3ccccc23)n1 | 2490 nM | 650 nM | 38.2% | 146 nM | 30 nM | > 500 nM | > 1000 nM
COc1ccc(C(=O)Nc2cc(Nc3nccc(-c4cn(C)c5ccccc45)n3)c(OC)cc2F)nc1 | 8200 nM | 16800 nM | 1.5% |  |  |  | 
COc1ccc(C(=O)Nc2cc(Nc3nccc(-c4cn(C)c5ccccc45)n3)c(OC)cc2N(C)CCN(C)C)nc1 | 5230 nM | 4230 nM |  |  |  |  | > 1000 nM
COc1cc(F)c(NC(=O)c2ccncc2)cc1Nc1nccc(-c2cn(C)c3ccccc23)n1 | 4200 nM | 4370 nM | 15.5% |  |  |  | 
COc1cc(F)c(NC(=O)c2cnccn2)cc1Nc1nccc(-c2cn(C)c3ccccc23)n1 | 2490 nM | 24800 nM | 9.7% |  |  |  | 
COc1cc(N(C)CCN(C)C)c(NC(=O)c2nccn2C)cc1Nc1nccc(-c2cn(C)c3ccccc23)n1 | 2550 nM | 3320 nM |  |  |  |  | > 1000 nM
COc1cc(N(C)C)c(NC(=O)c2ccncc2OC)cc1Nc1nccc(-c2cn(C)c3ccccc23)n1 | 3030 nM | 12100 nM | 7.9% |  |  |  | 
COc1cc(N(C)CCN(C)C)c(NC(=O)c2ccncc2OC)cc1Nc1nccc(-c2cn(C)c3ccccc23)n1 | 2690 nM | 1010 nM | 28.5% | > 500 nM | 100 nM | > 500 nM | > 1000 nM
C=CC(=O)Nc1cc(Nc2nccc(-c3cn(C)c4ccccc34)n2)c(OC)cc1N(C)CCN(C)C [OSIMERTINIB] | 1870 nM | […] |  |  |  |  | > 1000 nM
COc1cc(N(C)CCN(C)C)c(NC(=O)c2ccnc(O)c2)cc1Nc1nccc(-c2cn(C)c3ccccc23)n1 | 11200 nM | 12000 nM | 38.1% | > 500 nM | > 500 nM | > 500 nM | > 1000 nM
COc1cc(N(C)CCN(C)C)c(NC(=O)c2ccncc2)cc1Nc1nccc(-c2cn(C)c3ccccc23)n1 | 10400 nM | 6860 nM | 24% | > 500 nM | 391 nM | > 500 nM | > 1000 nM
COc1cc(N(C)CCN(C)C)c(NC(=O)c2ccnc(Cl)c2)cc1Nc1nccc(-c2cn(CCCO)c3ccccc23)n1 | 2140 nM | 1820 nM | 70.1% | 743 nM | 42 nM | 137 nM | > 1000 nM
COc1cc(N(C)C)c(NC(=O)c2ncccn2)cc1Nc1nccc(-c2cn(C)c3ccccc23)n1 | 8640 nM | 5400 nM | 7.4% |  |  |  | 
COc1cc(N(C)CCN(C)C)c(NC(=O)c2ccncn2)cc1Nc1nccc(-c2cn(CCCO)c3ccccc23)n1 | 2660 nM | 2120 nM | 65.6% | 590 nM | 41 nM | 161 nM | > 1000 nM

SMILES | IC50 (A549) | IC50 (NCI-H1975) | inhibition [1] | IC50 [2] | IC50 [3] | IC50 [4] | IC50 [5]
COc1cc(N(C)C)c(NC(=O)c2ccnc(Cl)n2)cc1Nc1nccc(-c2cn(C)c3ccccc23)n1 | 2840 nM | 3660 nM | -1.8% |  |  |  | 
COc1cc(F)c(NC(=O)c2ccncc2OC)cc1Nc1nccc(-c2cn(C)c3ccccc23)n1 | 3430 nM | 4120 nM | 2.2% |  |  |  | 
COc1cc(N(C)CCN(C)C)c(NC(=O)c2cnccn2)cc1Nc1nccc(-c2cn(C)c3ccccc23)n1 | 4330 nM | 1220 nM | 38.2% | 224 nM | 17 nM | > 500 nM | > 1000 nM
COc1cc(N(C)CCN(C)C)c(NC(=O)c2ccnc(Cl)c2)cc1Nc1nccc(-c2cn(C)c3ccccc23)n1 | 970 nM | 2050 nM | 42.9% | > 500 nM | > 500 nM | 420 nM | > 1000 nM
COc1cc(N(C)C)c(NC(=O)c2ccnc(Cl)c2)cc1Nc1nccc(-c2cn(C)c3ccccc23)n1 | 3430 nM | 9200 nM | 9.4% |  |  |  | 
COc1cc(N(C)C)c(NC(=O)c2nccn2C)cc1Nc1nccc(-c2cn(C)c3ccccc23)n1 | 10200 nM | 2880 nM | 12.1% |  |  |  | 
COc1cc(N(C)C)c(NC(=O)c2ccncc2)cc1Nc1nccc(-c2cn(C)c3ccccc23)n1 | 9000 nM | 1470 nM | 18.1% |  |  |  | 
COc1cc(N(C)CCN(C)C)c(NC(=O)c2ccncn2)cc1Nc1nc(-c2cn(C)c3ccccc23)c2cccnc2n1 | 4520 nM | 1090 nM | 22.3% | 360 nM | > 500 nM | > 500 nM | > 1000 nM
COc1cc(N(C)CCN(C)C)c(NC(=O)c2ccncc2OC)cc1Nc1nccc(-c2cn(CCCO)c3ccccc23)n1 | 2390 nM | 1970 nM | 49.5% |  |  |  | 
COc1cc(F)c(NC(=O)c2ccnc(Cl)c2)cc1Nc1nccc(-c2cn(C)c3ccccc23)n1 | 6890 nM | 4330 nM | 9.6% |  |  |  | 
COc1cc(F)c(NC(=O)c2nccn2C)cc1Nc1nccc(-c2cn(C)c3ccccc23)n1 | 5140 nM | 10600 nM | 7.7% |  |  |  | 
COc1ccc(C(=O)Nc2cc(Nc3nccc(-c4cn(C)c5ccccc45)n3)c(OC)cc2N(C)C)nc1 | 5150 nM | 2130 nM | 1.2% |  |  |  | 
COc1cc(N(C)C)c(NC(=O)c2ccncn2)cc1Nc1nccc(-c2cn(C)c3ccccc23)n1 | 5160 nM | 1250 nM | 8.8% |  |  |  | 
COc1cc(N(C)CCN(C)C)c(NC(=O)c2nccn2C)cc1Nc1nc(-c2cn(C)c3ccccc23)c2cccnc2n1 | 5640 nM | 4200 nM | 19.4% | > 500 nM | 420 nM | > 500 nM | > 1000 nM
COc1cc(N(C)C)c(NC(=O)c2c[nH]cn2)cc1Nc1nccc(-c2cn(C)c3ccccc23)n1 | 3560 nM | 3120 nM | 24.7% |  |  |  | 
COc1cc(F)c(NC(=O)c2ccnc(O)c2)cc1Nc1nccc(-c2cn(C)c3ccccc23)n1 | 11700 nM | 5920 nM | 10.6% |  |  |  | 
COc1cc(N(C)CCN(C)C)c(NC(=O)c2cnccn2)cc1Nc1nc(-c2cn(C)c3ccccc23)c2ccccc2n1 | 10100 nM | 16300 nM | -9.4% |  |  |  | 
COc1cc(F)c(NC(=O)c2ncccn2)cc1Nc1nccc(-c2cn(C)c3ccccc23)n1 | 8400 nM | 13500 nM | 9.6% |  |  |  | 
